Measured values published in US20230414826A1, “FIBRIN HYDROGELS” (Mayo Foundation for Medical Education and Research, priority 2020, published 2023).

Target: T1, fibrinogen and thrombin (clinical standard from the manufacturer) (Homo sapiens, UniProt P02671+P02675+P02679)
T1 sequence (P02671 20-629 limits assumed): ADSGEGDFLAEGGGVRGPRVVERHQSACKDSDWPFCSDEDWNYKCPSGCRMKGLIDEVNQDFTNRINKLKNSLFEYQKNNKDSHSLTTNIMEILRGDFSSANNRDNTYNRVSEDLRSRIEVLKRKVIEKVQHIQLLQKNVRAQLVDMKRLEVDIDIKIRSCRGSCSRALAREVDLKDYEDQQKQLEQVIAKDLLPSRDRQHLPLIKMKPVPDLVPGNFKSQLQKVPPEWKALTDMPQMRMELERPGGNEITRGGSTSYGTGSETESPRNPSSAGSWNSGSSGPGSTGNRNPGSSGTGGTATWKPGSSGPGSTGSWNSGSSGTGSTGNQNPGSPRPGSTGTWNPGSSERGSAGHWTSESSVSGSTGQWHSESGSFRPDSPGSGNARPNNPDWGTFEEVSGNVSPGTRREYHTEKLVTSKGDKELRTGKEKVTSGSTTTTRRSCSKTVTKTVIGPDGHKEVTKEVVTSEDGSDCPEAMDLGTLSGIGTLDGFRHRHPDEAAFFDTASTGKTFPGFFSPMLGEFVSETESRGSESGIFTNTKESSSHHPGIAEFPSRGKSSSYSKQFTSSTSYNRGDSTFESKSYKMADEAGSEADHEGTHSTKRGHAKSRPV
T1 sequence (P02675 31-491): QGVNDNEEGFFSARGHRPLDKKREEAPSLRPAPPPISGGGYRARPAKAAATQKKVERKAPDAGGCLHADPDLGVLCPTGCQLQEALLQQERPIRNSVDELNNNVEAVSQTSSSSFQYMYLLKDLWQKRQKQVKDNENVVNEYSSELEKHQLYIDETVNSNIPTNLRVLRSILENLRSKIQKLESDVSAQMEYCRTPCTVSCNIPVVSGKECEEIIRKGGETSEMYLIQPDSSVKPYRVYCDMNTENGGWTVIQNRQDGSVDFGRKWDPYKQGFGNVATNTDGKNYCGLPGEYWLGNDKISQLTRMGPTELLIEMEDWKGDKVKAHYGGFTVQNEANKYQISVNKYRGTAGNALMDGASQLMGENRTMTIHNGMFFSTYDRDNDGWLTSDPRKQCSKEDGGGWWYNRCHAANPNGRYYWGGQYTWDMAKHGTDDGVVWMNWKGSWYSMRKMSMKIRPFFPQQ
T1 sequence (P02679 27-433 limits assumed): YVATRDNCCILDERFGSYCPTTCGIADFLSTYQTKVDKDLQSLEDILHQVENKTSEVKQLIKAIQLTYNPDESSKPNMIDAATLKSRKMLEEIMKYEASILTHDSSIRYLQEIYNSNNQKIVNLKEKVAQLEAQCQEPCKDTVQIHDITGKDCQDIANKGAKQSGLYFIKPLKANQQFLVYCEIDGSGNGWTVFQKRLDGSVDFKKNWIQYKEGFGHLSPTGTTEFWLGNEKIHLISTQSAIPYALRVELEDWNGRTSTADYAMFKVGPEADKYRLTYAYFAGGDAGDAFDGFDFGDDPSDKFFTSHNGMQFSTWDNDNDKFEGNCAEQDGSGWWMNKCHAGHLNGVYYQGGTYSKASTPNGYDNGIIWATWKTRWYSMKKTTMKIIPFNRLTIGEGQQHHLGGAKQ
Assay: Fibrinogen clotting assay with coagulation analyzer (Clauss method), clinical fibrinogen standard
Format: biochemical
Settings: clinical standard samples diluted in 1× citrate buffer + TB (4.58 mM), pH 7.4, 37° C.
Experimental: The effect of various chemical compounds on clotting time was determined. […] The chemical additives were added to either clinical fibrinogen standards (Stago; Parsippany NJ) or a 1:20 dilution of the Evicel Biologically Active Component 2 (Ethicon), which is a fibrinogen solution (60 mg/mL) and served as the various samples. The same lot of BAC2 was used within each experiment to minimize lot-lot variability.
The Clauss method was used to measure fibrin clotting time. The clotting assay was performed using the Stago STart® Coagulation Analyzer (Stago; Parsippany, NJ) per manufacturer's protocol. The Stago STart uses a mechanical, viscosity-based detection of clotting, independent of sample color and turbidity. Per the protocol, samples were diluted 1:20 in Owren-Koller buffer (Stago) and allowed to equilibrate for 5 minutes at 37° C. Each sample was loaded in a cuvette with a magnetic bead.
In efforts to improve the visibility of fibrin gels during surgical implantation, it was observed that the inclusion of TB in the gelation mixture improved handling of the liquid phase of the gelation reaction. […] A coagulation analyzer is a specialized clinical instrument that is used to quantify fibrinogen concentrations in patient blood samples via the Clauss Method (Clauss, Acta Haematol., 17:237-46 (1957)). […]

Cc1cc(-c2ccc(/N=N/c3c(S(=O)(=O)O)cc4cc(S(=O)(=O)O)cc(N)c4c3O)c(C)c2)ccc1/N=N/c1c(S(=O)(=O)O)cc2cc(S(=O)(=O)O)cc(N)c2c1O [TB, Trypan Blue]
gelation time (clotting time): 14.6 ± 1.5 s
